Measured values published in patent US10793892B2, “Method for detecting the presence of expanded spectrum β-lactamase-producing bacteria in a sample” (INSERM (INSTITUT NATIONAL DE LA SANTE ET DE LA RECHERCHE …, priority 2011, dated 2020).

Assays:
M. morganii = assay: ESBL NDP test using spiked blood cultures; type: biochemical, Morganella morganii; parameters: key: (+) and (−) referred to color change being, red to yellow or unchanged, respectively; (+) and (−) referred to color change being, red to yellow or unchanged, respectively
Method: Strains were isolated on Mueller-Hinton agar (Biorad, Marnes-la-Coquette, France) and incubated at 37° C. for 16 h to 24 h before performing the NDP rapid ESBL test as follows. One calibrated inoculated loop (10 μl) of the tested strain was resuspended in 150 μl of 20 mM Tris-HCl lysis buffer previously distributed in Microbead tubes (Ultraclean Microbial DNA isolation kit Bead Tubes, MO BIO Laboratories, Carlsbad, USA). Mechanical lysis of bacteria was performed by strong agitation of Microbead tubes using a vortex adapter (MO BIO Laboratories) for 30 min at room temperature. This bacterial suspension was centrifuged at 10,000×g at room temperature for 5 min. Thirty μl of the supernatant was mixed in a well of a 96-well tray with 100 μl of a 1 ml solution made of 3 mg of purified cefotaxime sodium salt (Sigma-Aldrich, Saint-Quentin-Fallavier, France) in a pH 7.8 phenol red solution. […]. […] Similarly, culture extracts were analyzed in wells containing cefotaxime and tazobactam (4 mg/ml). […]
Rapid detection of ESBL producers was attempted from spiked blood cultures which positivity was assessed using the BactAlert blood culture system (bioMérieux). […] Spiked blood cultures were made of 1×10^3 CFU of each strain and incubated 24 to 48 h before a positivity of the blood culture was detected by the BactAlert system. […]

E. aerogenes = assay: ESBL NDP test using cultured strains; type: biochemical, Enterobacter aerogenes; parameters: key: (+) and (−) referred to color change being, red to yellow or unchanged, respectively; (+) and (−) referred to color change being, red to yellow or unchanged, respectively
Method: (§1) Strains were isolated on Mueller-Hinton agar (Biorad, Marnes-la-Coquette, France) and incubated at 37° C. for 16 h to 24 h before performing the NDP rapid ESBL test as follows. One calibrated inoculated loop (10 μl) of the tested strain was resuspended in 150 μl of 20 mM Tris-HCl lysis buffer previously distributed in Microbead tubes (Ultraclean Microbial DNA isolation kit Bead Tubes, MO BIO Laboratories, Carlsbad, USA). Mechanical lysis of bacteria was performed by strong agitation of Microbead tubes using a vortex adapter (MO BIO Laboratories) for 30 min at room temperature. This bacterial suspension was centrifuged at 10,000×g at room temperature for 5 min. Thirty μl of the supernatant was mixed in a well of a 96-well tray with 100 μl of a 1 ml solution made of 3 mg of purified cefotaxime sodium salt (Sigma-Aldrich, Saint-Quentin-Fallavier, France) in a pH 7.8 phenol red solution. […]. The phenol red solution was made by taking 2 ml of a concentrated pH 8 phenol solution (made from a mixture of phenol red 0.5% in distilled water) to which 16.6 ml of distilled water was added. The pH value was then adjusted to a 7.8 value by adding drops of a 1 N NaOH solution. Mixture of the phenol red solution and the enzymatic suspension being tested was incubated at 37° C. for 30 min. Similarly, culture extracts were analyzed in wells containing cefotaxime and tazobactam (4 mg/ml). Other concentrations of tazobactam and other ß-lactamase inhibitors were tested giving less clear results (data not shown). […] This definition of test positivity will be applied throughout the study.

C. brakii = assay: ESBL NDP test using cultured strains; type: biochemical; parameters: key: (+) and (−) referred to color change being, red to yellow or unchanged, respectively; (+) and (−) referred to color change being, red to yellow or unchanged, respectively; settings: C. brakii Wild-type, chromosome-encoded cephalosporinase, n=1
Method: as §1

S. thyphimurium = assay: ESBL NDP test using cultured strains; type: biochemical; parameters: key: (+) and (−) referred to color change being, red to yellow or unchanged, respectively; (+) and (−) referred to color change being, red to yellow or unchanged, respectively; settings: S. thyphimurium 10.81, CTX-M-1
Method: as §1

S. ficaria = assay: ESBL NDP test using cultured strains; type: biochemical; parameters: key: (+) and (−) referred to color change being, red to yellow or unchanged, respectively; (+) and (−) referred to color change being, red to yellow or unchanged, respectively
Method: as §1

E. sakazakii = assay: ESBL NDP test using cultured strains; type: biochemical; parameters: key: (+) and (−) referred to color change being, red to yellow or unchanged, respectively; (+) and (−) referred to color change being, red to yellow or unchanged, respectively; settings: overexpressed chromosome-encoded cephalosporinase, n=1
Method: as §1

Enterobacteriaceae = type: biochemical; settings: all CTX-M producers (n=147); tazobactam added to cefotaxime well
Method: Strains were isolated on Mueller-Hinton agar (Biorad, Marnes-la-Coquette, France) and incubated at 37° C. for 16 h to 24 h before performing the NDP rapid ESBL test as follows. One calibrated inoculated loop (10 μl) of the tested strain was resuspended in 150 μl of 20 mM Tris-HCl lysis buffer previously distributed in Microbead tubes (Ultraclean Microbial DNA isolation kit Bead Tubes, MO BIO Laboratories, Carlsbad, USA). Mechanical lysis of bacteria was performed by strong agitation of Microbead tubes using a vortex adapter (MO BIO Laboratories) for 30 min at room temperature. This bacterial suspension was centrifuged at 10,000×g at room temperature for 5 min. Thirty μl of the supernatant was mixed in a well of a 96-well tray with 100 μl of a 1 ml solution made of 3 mg of purified cefotaxime sodium salt (Sigma-Aldrich, Saint-Quentin-Fallavier, France) in a pH 7.8 phenol red solution. […] The phenol red solution was made by taking 2 ml of a concentrated pH 8 phenol solution (made from a mixture of phenol red 0.5% in distilled water) to which 16.6 ml of distilled water was added. The pH value was then adjusted to a 7.8 value by adding drops of a 1 N NaOH solution. Mixture of the phenol red solution and the enzymatic suspension being tested was incubated at 37° C. for 30 min. Similarly, culture extracts were analyzed in wells containing cefotaxime and tazobactam (4 mg/ml). […]

E. cloacae = assay: Susceptibility testing, MIC by Etest; type: cell-based, Enterobacter cloacae
Method: Susceptibility testing was performed by determining MIC values using the Etest® (AB bioMérieux; Solna, Sweden) on Mueller-Hinton agar plates at 37° C. and results were recorded according to US guidelines (CLSI), as updated in 2012 (2). The breakpoints for cefotaxime are susceptible (S)≤1 and resistant (R)≥4 μg/ml, and for ceftazidime S≤4 and R≥16 μg/ml.

K. pneumoniae = assay: ESBL NDP test using spiked blood cultures; type: biochemical, Klebsiella pneumoniae; parameters: key: (+) and (−) referred to color change being, red to yellow or unchanged, respectively; (+) and (−) referred to color change being, red to yellow or unchanged, respectively
Method: as §1
Rapid detection of ESBL producers was attempted from spiked blood cultures which positivity was assessed using the BactAlert blood culture system (bioMérieux). […] This inoculum was reached after 24-48 h incubation in this BactAlert system. Strains were inoculated into blood culture system in presence of 10 ml of sterile blood. The panel of strains used for spiking blood cultures included either non-ESBL producers (n=24) or ESBL producers (n=64) (Table 4). Spiked blood cultures were made of 1×10^3 CFU of each strain and incubated 24 to 48 h before a positivity of the blood culture was detected by the BactAlert system. Then, 15 ml of spiked blood culture were transferred in a sterile tube and centrifuged at 1,500×g for 3 min to pellet the red blood cells. The supernatant was recovered and centrifuged for 15 min at 4,000×g to pellet the bacteria. The bacterial pellet was then resuspended in 500 μl of distilled water, transferred in 1.5 ml tube and thoroughly vortexed for 15 sec to lyse the remnant red blood cells and wash the bacterial pellet. After 5 min of centrifugation at 10,000×g, the bacterial pellet was resuspended in 150 μl of 20 mM Tris-HCl lysis buffer and distributed in beadtubes. The ESBL NDP test was then applied to this pellet as described above. Experiments were systematically performed in triplicate.

## CO/N=C(\C(=O)N[C@@H]1C(=O)N2C(C(=O)O)=C(COC(C)=O)CS[C@H]12)c1csc(N)n1 [CTX, cefotaxime]
M. morganii; M. morganii BG 1106 5902, Wild-type
  ESBL NDP Test from: Blood culture: −
M. morganii; M. morganii BG 1117 0617, Wild-type
  ESBL NDP Test from: Blood culture: −
E. aerogenes; E. aerogenes BN 1113 0225, Wild-type
  ESBL NDP Test from: Colonies: −
E. aerogenes; E. aerogenes E2O15, TEM-121
  ESBL NDP Test from: Colonies: −
E. aerogenes; E. aerogenes TEM-24, n=6
  Test (color change): −
E. aerogenes; E. aerogenes TEM-121, n=1
  Test (color change): −
E. aerogenes; E. aerogenes Wild-type, chromosome-encoded cephalosporinase, n=1
  Test (color change): −
C. brakii
  Test (color change): −
S. thyphimurium
  ESBL NDP Test from: Colonies: +
S. ficaria; S. ficaria CIP 104255, Wild-type
  ESBL NDP Test from: Colonies: −
S. ficaria; S. ficaria Wild-type, chromosome-encoded cephalosporinase, n=1
  Test (color change): −
E. sakazakii
  Test (color change): −
Enterobacteriaceae
  color of the wells: turned from red to yellow
E. cloacae; E. cloacae CTX-M-14, n=1
  MICs range: >16 µg/mL
E. cloacae; E. cloacae CTX-M-15, n=17
  MICs range: >16 µg/mL
E. cloacae; E. cloacae GES-5, n=1
  MICs range: >16 µg/mL
E. cloacae; E. cloacae PER-1, n=1
  MICs range: >16 µg/mL
E. cloacae; E. cloacae SHV-5, n=1
  MICs range: >16 µg/mL
E. cloacae; E. cloacae TEM-3, n=2
  MICs range: >16 µg/mL
E. cloacae; E. cloacae VEB-1, n=1
  MICs range: 16 µg/mL
E. cloacae; E. cloacae Wild-type, chromosome-encoded cephalosporinase, n=5
  MICs range: 0.09 to 0.5 µg/mL
E. cloacae; E. cloacae, overexpressed chromosome-encoded cephalosporinase, n=2
  MICs range: >16 µg/mL
E. cloacae; E. cloacae, overexpressed chromosome-encoded cephalosporinase, n=3
  MICs range: >16 µg/mL
K. pneumoniae; K. pneumoniae 09.127, SHV-2a
  ESBL NDP Test from: Blood culture: +
K. pneumoniae; K. pneumoniae 09.138, TEM-3
  ESBL NDP Test from: Blood culture: +
K. pneumoniae; K. pneumoniae 09.158, SHV-12
  ESBL NDP Test from: Blood culture: +
K. pneumoniae; K. pneumoniae 09.162, TEM-52
  ESBL NDP Test from: Blood culture: +
K. pneumoniae; K. pneumoniae 09.169, TEM-52
  ESBL NDP Test from: Blood culture: +
K. pneumoniae; K. pneumoniae 09.181, SHV-2a
  ESBL NDP Test from: Blood culture: +
K. pneumoniae; K. pneumoniae 09.190, SHV-2a
  ESBL NDP Test from: Blood culture: +
K. pneumoniae; K. pneumoniae 09.200, TEM-3
  ESBL NDP Test from: Blood culture: +
K. pneumoniae; K. pneumoniae 09.217, SHV-5
  ESBL NDP Test from: Blood culture: +
K. pneumoniae; K. pneumoniae 09.45, SHV-12
  ESBL NDP Test from: Blood culture: +
K. pneumoniae; K. pneumoniae 09.60, SHV-5
  ESBL NDP Test from: Blood culture: +
K. pneumoniae; K. pneumoniae 09.99, SHV-2a
  ESBL NDP Test from: Blood culture: +
K. pneumoniae; K. pneumoniae 10.159, CTX-M-3
  ESBL NDP Test from: Blood culture: +
K. pneumoniae; K. pneumoniae ANG, DHA-1
  ESBL NDP Test from: Blood culture: −
K. pneumoniae; K. pneumoniae BG 1202 5484, Penicillinase
  ESBL NDP Test from: Blood culture: −
K. pneumoniae; K. pneumoniae FOR, DHA-2
  ESBL NDP Test from: Blood culture: +
K. pneumoniae; K. pneumoniae MEK, CTX-M-15
  ESBL NDP Test from: Blood culture: +
K. pneumoniae; K. pneumoniae SHI, CTX-M-15
  ESBL NDP Test from: Blood culture: +
